Test system: MCF-7 breast adenocarcinoma
Assay: Cell culture cytotoxicity assay (MTT dye reduction), inhibition of cell growth
Type: cell-based, Human
Details: for IC50: MCF7, Anti-tumour Activity Human Breast Adenocarcinoma Cells, MCF-7, 72 hours incubation, medium with 10 nM calcium leucovorin as folate source, read-out: IC₅₀; for inhibiting the growth of MCF-7 cells: 72 hours, MTT dye reduction, result in words
Description: Cells and Medium: MCF-7 breast adenocarcinoma, obtained from the American Type Culture Collection (ATCC) are grown in RPMI 1640 medium supplemented with 10 nM calcium leucovorin instead of folic acid as the folate source; 10% dialyzed fetal calf serum, penicillin, streptomycin and sodium pyruvate (110 µg/ml).
Cytotoxicity Assay: Cells are seeded into 96 well plates using a Perkin Elmer Pro/pette. MCF-7 cells are seeded at 15,000 cells per well in 150 µl of medium and each concentration was assayed in triplicate. Cultures were incubated for 72 hours in a 37^o humidified incubator at5% CO₂. Inhibition of cell growth was measured using the MTT dye reduction assay.
MTT Dye Reduction Assay: Cell dilutions for a standard curve were prepared from a 72 hour log-phase culture. Serial dilutions were seeded in triplicate in 96 well plates and incubated at 37 for 1 hour. MTT (3-(4,5-dimethylthiazol-2-yl)-2,5-diphenyltetrazolium bromide) was dissolved in phosphate buffered saline at 5 mg/ml and sonicated for 30 seconds. Using the Perkin Elmer Pro/pipette, […] of medium was removed and 100 µl of MTT added to the wells of the standard curve and test plates. Suspension cultures were spun for 5 minutes at 1000 rpm before removing medium from the wells. Plates were incubated for 1 hour at 37^o on a platform shaker. Following this incubation, 100 µl of medium was removed from the wells and 100 µl of dimethylsulphoxide added to each well. The plates were sonicated for approximately 10 seconds to solubilize the precipitated formazan dye. The absorbance of each well was measured using a Titertek Multiskan MC microtiter plate reader at 570 nm with a reference wavelength of 750 nm.

| SMILES | IC50 | inhibiting the growth of MCF-7 cells |
| --- | --- | --- |
| Nc1nc(N)c(CCCSc2ccc(C(=O)N[C@@H](CCC(=O)O)C(=O)O)cc2)c(=O)[nH]1 [Example 1F, N-[4-[[3-(2,4-Diamino-1,6-dihydro-6-oxo-5-pyrimidinyl)propyl]thio]benzoyl]-L-glutamic acid] | 0.023 µM | active |
| Nc1nc(N)c(CCCOc2ccc(C(=O)N[C@@H](CCC(=O)O)C(=O)O)cc2)c(=O)[nH]1 [Example 2E, N-[4-[3-(2,4-Diamino-1,6-dihydro-6-oxo-5-pyrimidinyl)propoxy]benzoyl]-L-glutamic acid] | 0.085 µM | active |

From patent EP0409382A1, “Glutamic acid derivatives” (THE WELLCOME FOUNDATION LIMITED, priority 1989, dated 1991)
